{"source": "patent US11963985B2", "about": "“Coral composite extract, composition including the same and method of producing the same” (National Sun Yat-Sen University, priority 2018, dated 2024)", "assay": "partition coefficient (log P) of EXC-B", "assay_type": "physicochemical", "experimental": "Next, as STEP 103 depicts, the crude extraction step is performed on the coral staring material to obtain a crude extract, in which a first solvent is applied. In one embodiment, there is no limitation of the kind of the first solvent. However, the one having a polarity index P′ value closer to a polarity index P′ value of the coral composite extract is the better. For example, a partition coefficient (log P) of EXC-B is about 0.9 and an octanol-water partition coefficient (Clog P) of EXC-B is about 3.5568. Therefore, the polarity index P′ value of the first solvent can be 0.1 to 6.0, but 1.0 to 5.4 is better."}
{"substance": "excavatolide B [EXC-B]", "values": [{"measurement": "partition coefficient (log P)", "value": "about 0.9"}]}
